Measured values as given in patent US20130089512A1, “HETEROARYL IMIDAZOLONE DERIVATIVES AS JAK INHIBITORS” (priority 2010, published 2013).
pIC50: −log10 of the molar value.

Key:
human JAK1 (aa 850-1154) = human JAK1 (aa 850-1154) (Homo sapiens, UniProt P23458); test: In vitro JAK kinase assay (TR-FRET), JAK1
Method: (§1) The enzymatic activity was assayed using as substrate a biotinylated peptide, poly (GT)-Biotin (CisBio). […] The degree of phosphorylation was detected by TR-FRET (time-resolved fluorescence energy transfer). […] The enzymatic reactions took place for 30 minutes at room temperature. […] Incubate for 3 h and read on Victor 2V spectrofluorometer (PerkinElmer) set to read fluorescence resonance energy transfer.

human JAK3 (aa 795-1124) = human JAK3 (aa 795-1124) (Homo sapiens, UniProt P52333); test: In vitro JAK kinase assay (TR-FRET), JAK3
Method: as §1

human JAK2 (aa 826-1132) = human JAK2 (aa 826-1132) (Homo sapiens, UniProt O60674); test: In vitro JAK kinase assay (TR-FRET), JAK2
human JAK2 (aa 826-1132), sequence (O60674 826-1132): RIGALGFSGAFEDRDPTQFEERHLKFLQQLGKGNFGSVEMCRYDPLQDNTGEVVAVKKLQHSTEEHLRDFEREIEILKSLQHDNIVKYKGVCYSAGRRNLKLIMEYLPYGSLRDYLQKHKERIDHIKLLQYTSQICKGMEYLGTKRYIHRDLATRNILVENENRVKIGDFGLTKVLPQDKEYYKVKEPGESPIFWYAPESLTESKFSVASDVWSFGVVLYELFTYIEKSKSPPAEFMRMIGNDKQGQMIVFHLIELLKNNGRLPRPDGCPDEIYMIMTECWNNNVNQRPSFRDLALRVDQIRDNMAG
Method: as §1

human JAK1 (aa 850-1154), sequence (P23458 850-1154): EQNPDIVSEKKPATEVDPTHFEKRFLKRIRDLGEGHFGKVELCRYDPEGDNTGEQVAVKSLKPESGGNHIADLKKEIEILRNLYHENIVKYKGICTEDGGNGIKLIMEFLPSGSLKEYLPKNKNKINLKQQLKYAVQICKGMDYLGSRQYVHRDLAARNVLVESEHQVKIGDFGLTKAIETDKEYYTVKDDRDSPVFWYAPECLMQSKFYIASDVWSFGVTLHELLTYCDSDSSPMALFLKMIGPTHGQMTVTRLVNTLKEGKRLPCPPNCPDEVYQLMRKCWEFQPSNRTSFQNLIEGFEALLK
human JAK3 (aa 795-1124), sequence (P52333 795-1124): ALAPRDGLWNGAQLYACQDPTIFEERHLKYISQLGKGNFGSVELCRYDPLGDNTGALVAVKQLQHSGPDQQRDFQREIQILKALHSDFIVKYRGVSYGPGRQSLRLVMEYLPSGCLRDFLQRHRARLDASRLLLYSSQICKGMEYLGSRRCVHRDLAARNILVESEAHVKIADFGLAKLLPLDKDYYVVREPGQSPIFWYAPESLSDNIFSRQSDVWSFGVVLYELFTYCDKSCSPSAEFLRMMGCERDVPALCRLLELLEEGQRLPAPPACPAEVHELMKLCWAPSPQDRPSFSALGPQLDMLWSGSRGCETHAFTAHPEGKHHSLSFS

Row | pIC50 (human JAK1 (aa 850-1154)) | pIC50 (human JAK3 (aa 795-1124)) | pIC50 (human JAK2 (aa 826-1132)) | SMILES
1 | < 6.00 | > 7.00 | > 7.00 | O=c1[nH]c2cnc(-c3cnn4cc(F)ccc34)nc2n1C1CCOCC1 [Example 89, 2-(6-Fluoropyrazolo[1,5-a]pyridin-3-yl)-9-(tetrahydro-2H-pyran-4-yl)-7H-purin-8(9H)-one]
2 | < 6.00 | > 7.00 | > 7.00 | CS(=O)(=O)N1CCC(n2c(=O)[nH]c3ccc(-c4cnc5ccc(F)cn45)nc32)CC1 [Example 71, 5-(6-Fluoroimidazo[1,2-a]pyridin-3-yl)-3-[1-(methylsulfonyl)piperidin-4-yl]-1,3-dihydro-2H-imidazo[4,5-b]pyridin-2-one]
3 | < 6.00 | 6.00 to 7.00 | 6.00 to 7.00 | C[C@H](CC(N)=O)n1c(=O)[nH]c2cnc(-c3cnc4ccc(F)cn34)nc21 [Example 58, (R)-3-(2-(6-Fluoroimidazo[1,2-a]pyridin-3-yl)-8-oxo-7H-purin-9(8H)-yl)butanamide]
4 | 6.00 to 7.00 | 6.00 to 7.00 | 6.00 to 7.00 | O=c1[nH]c2cnc(-c3cnn4ccncc34)nc2n1CC1CCOCC1 [Example 80, 2-(Pyrazolo[1,5-a]pyrazin-3-yl)-9-((tetrahydro-2H-pyran-4-yl)methyl)-7H-purin-8(9H)-one]
5 | < 6.00 | 6.00 to 7.00 | > 7.00 | N#CC1(n2c(=O)[nH]c3cnc(-c4cnc5ccc(F)cn45)nc32)CCCCC1 [Example 36, 1-(2-(6-Fluoroimidazo[1,2-a]pyridin-3-yl)-8-oxo-7H-purin-9(8H)-yl)cyclohexane carbonitrile]
6 | 6.00 to 7.00 |  |  | C[C@@H]1CCCC[C@@H]1n1c(=O)[nH]c2cnc(-c3cnc4ccc(C#N)cn34)nc21 [Example 3, 3-(9-((1S,2R)-2-Methylcyclohexyl)-8-oxo-8,9-dihydro-7H-purin-2-yl)imidazo[1,2-a]pyridine-6-carbonitrile]
7 | < 6.00 | 6.00 to 7.00 | 6.00 to 7.00 | CC1(C)CC(n2c(=O)[nH]c3cnc(-c4cnc5ccc(F)cn45)nc32)c2cccnc2O1 (stereo not shown) [Example 42, 9-(2,2-Dimethyl-3,4-dihydro-2H-pyrano[2,3-b]pyridin-4-yl)-2-(6-fluoroimidazo[1,2-a]pyridin-3-yl)-7H-purin-8(9H)-one]
8 | < 6.00 | 6.00 to 7.00 | > 7.00 | CS(=O)(=O)N1CCC[C@@H](n2c(=O)[nH]c3cnc(-c4cnc5ccc(F)cn45)nc32)C1 [Example 62, 2-(6-Fluoroimidazo[1,2-a]pyridin-3-yl)-9-[(3R)-1-(methylsulfonyl)piperidin-3-yl]-7,9-dihydro-8H-purin-8-one]
9 | 6.00 to 7.00 | 6.00 to 7.00 | > 7.00 | O=c1[nH]c2cnc(-c3cnn4cccnc34)cc2n1C1CCOCC1 [Example 92, 6-(Pyrazolo[1,5-a]pyrimidin-3-yl)-1-(tetrahydro-2H-pyran-4-yl)-1H-imidazo[4,5-c]pyridin-2(3H)-one]
10 | 6.00 to 7.00 | > 7.00 | > 7.00 | O=c1[nH]c2cc(F)c(-c3cnc4ccc(F)cn34)nc2n1C1CCOCC1 [Example 73, 6-Fluoro-5-(6-fluoroimidazo[1,2-a]pyridin-3-yl)-3-(tetrahydro-2H-pyran-4-yl)-1,3-dihydro-2H-imidazo[4,5-b]pyridin-2-one]
11 | 6.00 to 7.00 | 6.00 to 7.00 | > 7.00 | O=c1[nH]c2cnc(-c3cnc4ccc(F)cn34)nc2n1[C@H](CO)c1ccc(F)cn1 [Example 35, (S)-2-(6-Fluoroimidazo[1,2-a]pyridin-3-yl)-9-(1-(5-fluoropyridin-2-yl)-2-hydroxyethyl)-7H-purin-8(9H)-one]
12 | > 7.00 | > 7.00 | > 7.00 | C[C@H](c1ccc(F)cn1)n1c(=O)[nH]c2cnc(-c3cnn4ccncc34)nc21 [Example 79, (R)-9-(1-(5-Fluoropyridin-2-yl)ethyl)-2-(pyrazolo[1,5-a]pyrazin-3-yl)-7H-purin-8(9H)-one]
13 | < 6.00 | > 7.00 | > 7.00 | O=c1[nH]c2c(N3CCNCC3)nc(-c3cnc4ccc(F)cn34)nc2n1C1CCOCC1 [Example 98, 2-(6-Fluoroimidazo[1,2-a]pyridin-3-yl)-6-(piperazin-1-yl)-9-(tetrahydro-2H-pyran-4-yl)-7H-purin-8(9H)-one]
14 | > 7.00 | > 7.00 | > 7.00 | O=c1[nH]c2cnc(-c3cnn4ccncc34)nc2n1C1CCC(F)(F)CC1 [Example 81, 9-(4,4-Difluorocyclohexyl)-2-(pyrazolo[1,5-a]pyrazin-3-yl)-7H-purin-8(9H)-one]
